Results: ChEMBL document CHEMBL1121659 (J Med Chem, 1981)
Active and inactive are the calls of the source. The rule behind the calls is not given here.

Key:
[1] = tested on: Mus musculus; experiment: Compound was evaluated for the dose required for protection against MES-induced seizures after 4 hours of intraperitoneal administration; assay type: functional
[2] = tested on: Mus musculus; experiment: Compound was evaluated for the neuro toxicity up to 4 hours after doses of <=300 mg/kg administered intraperitoneally; No toxicity; assay type: organism-based; conditions: in vivo, ip
[3] = tested on: Mus musculus; experiment: Compound was evaluated for the dose required for protection against scMET-induced seizures after 4 hours of intraperitoneal administration at the doses< = 0.77-0.90 mM/kg; Inactive; assay type: functional, organism-based

What does the source list for `O=C1NC(=O)C(c2ccccc2)(c2cccc(C(F)(F)F)c2)N1` (stereo not drawn)?
Activity [1]: 0.31 mmol/kg; Neurotoxicity [2]: No toxicity; Activity [3]: inactive
